Numbered stars: 1 amine (or outer) side, 2 acyl side, 3 side chain; on linkers, the order of the positions; unused ones are H or OH. Bridge positions count the residues as written; N and C are the ends. Square brackets hold non-standard residues; d marks the D form. Peptide text beside a SMILES is read from it. * marks the point of attachment. hPhe(3,5-F2-4-CF3) = N[C@@H](CCc1cc(F)c(C(F)(F)F)c(F)c1)C(=O)O; hPhe(3-Cl-4-CF3) = N[C@@H](CCc1ccc(C(F)(F)F)c(Cl)c1)C(=O)O; hPhe(3-F,4-CF3) = N[C@@H](CCc1ccc(C(F)(F)F)c(F)c1)C(=O)O; X13 = O=C([C@H](CCc1ccc(OC(F)(F)F)c(Cl)c1)N[*:1])[*:2]; NMePhe(4-CF3) = CN[C@@H](Cc1ccc(C(F)(F)F)cc1)C(=O)O; hPhe(4-CF3) = N[C@@H](CCc1ccc(C(F)(F)F)cc1)C(=O)O; NEtPhe(4-Me) = CCN[C@@H](Cc1ccc(C)cc1)C(=O)O; NMePhe(4-Cl) = CN[C@@H](Cc1ccc(Cl)cc1)C(=O)O; NMePhe(4-Me) = CN[C@@H](Cc1ccc(C)cc1)C(=O)O; NMedβ3hAla = C[C@H](CC(=O)[*:2])N(C)[*:1]; NMeGly(cPent) = CN[C@H](C(=O)O)C1CCCC1; NMeCha = CN[C@@H](CC1CCCCC1)C(=O)O; Hyp = O=C(O)[C@@H]1C[C@@H](O)CN1; NMeChg = CN[C@H](C(=O)O)C1CCCCC1; NMeI = CC[C@H](C)[C@H](NC)C(=O)O; NMeT = CN[C@H](C(=O)O)[C@@H](C)O; d(β3hL) = CC(C)C[C@@H](N)CC(=O)O; NMeD = CN[C@@H](CC(=O)O)C(=O)O; NMeL = CN[C@@H](CC(C)C)C(=O)O; NMeNva = CCC[C@H](NC)C(=O)O; NMeV = CN[C@H](C(=O)O)C(C)C; d(β3hA) = C[C@@H](N)CC(=O)O; NMeS = CN[C@@H](CO)C(=O)O; NMeA = CN[C@@H](C)C(=O)O; Piperidide = C1CCN(*)CC1; Ac5c = NC1(C(=O)O)CCCC1; Aze = O=C(O)[C@@H]1CCN1; Ac4c = NC1(C(=O)O)CCC1; Aib = CC(C)(N)C(=O)O; X53 = CC1(C)CCN(*)C1; Sar = CNCC(=O)O; Propyl = CCC*

9 compounds from patent US20240148821A1, “PHARMACEUTICAL USE OF CYCLIC PEPTIDE COMPOUND” (CHUGAI SEIYAKU KABUSHIKI KAISHA, priority 2021, published 2024) can be followed below.

The target of this test is protein-protein interaction between Kras and SOS1 (biotin-tagged human Kras loaded with GDP, His-tagged human SOS1) (Homo sapiens (Human), UniProt P01116, G12D). Description: Protein-protein interaction inhibition between Kras and SOS1 (KrasG12D-SOS PPI) using AlphaScreen.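 Also: kras produced in E. coli, Ni-coupled donor beads and streptavidin acceptor beads, excitation 680 nm with emission detected at 520–620 nm via singlet oxygen transfer.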 In kind it is biochemical. The following applies: AlphaScreen; biotin-tagged human Kras loaded with GDP, His-tagged human SOS1; read-out: KRAS G12D-SOS PPI IC50. On the technique in general: In Alpha technology, singlet oxygen from a donor bead excites a nearby acceptor bead.
With `CC[C@H](C)[C@@H]1NC(=O)[C@H](CC(C)C)N(C)C(=O)C[C@@H](CC(C)C)NC(=O)[C@H]([C@@H](C)CC)N(C)C(=O)C2(CCCC2)NC(=O)[C@@H]2CCCN2C(=O)[C@H](CCc2ccc(C(F)(F)F)c(Cl)c2)NC(=O)CN(C)C(=O)[C@H](Cc2ccc(C(F)(F)F)cc2)N(C)C(=O)[C@@H]2CCN2C(=O)[C@H](C)N(C)C1=O` [Compound 1899] (cyclo([Ac5c][NMeI][d(β3hL)][NMeL]I[NMeA][Aze][NMePhe(4-CF3)][Sar][hPhe(3-Cl-4-CF3)]P)), the IC50 is 0.22 µM.

Regarding `CC[C@H](C)[C@@H]1NC(=O)[C@H](CC(C)C)N(C)C(=O)C[C@@H](C(=O)N2CCC(C)(C)C2)NC(=O)[C@H](C(C)C)N(C)C(=O)C2(CCCC2)NC(=O)[C@@H]2CCCN2C(=O)[C@H](CCc2ccc(C(F)(F)F)c(Cl)c2)NC(=O)CN(C)C(=O)[C@H](CC2CCCCC2)N(C)C(=O)[C@@H]2CCN2C(=O)[C@H](C)N(C)C1=O` [Compound 1280] ([NMeL]I[NMeA][Aze][NMeCha][Sar][hPhe(3-Cl-4-CF3)]P[Ac5c][NMeV]D-X53; lactam N-11), the IC50 is 0.074 µM.

With `CC[C@H](C)[C@@H]1NC(=O)[C@H](CC(C)C)N(C)C(=O)C[C@@H](C)NC(=O)[C@H](C2CCCC2)N(C)C(=O)C2(CCCC2)NC(=O)[C@@H]2CCCN2C(=O)[C@H](CCc2ccc(C(F)(F)F)c(Cl)c2)NC(=O)CN(C)C(=O)[C@H](Cc2ccc(C)cc2)N(C)C(=O)CN(C)C(=O)CN(C)C1=O` [Compound 1471] (cyclo([Ac5c][NMeGly(cPent)][d(β3hA)][NMeL]I[Sar][Sar][NMePhe(4-Me)][Sar][hPhe(3-Cl-4-CF3)]P)), the IC50 was found to be 0.0017 µM.

Regarding `CC[C@H](C)[C@@H]1NC(=O)[C@H](CC(C)C)N(C)C(=O)C[C@@H](C(=O)N2CCCCC2)N(C)C(=O)[C@H](C2CCCC2)N(C)C(=O)C2(CCCC2)NC(=O)[C@@H]2CCCN2C(=O)[C@H](CCc2ccc(OC(F)(F)F)c(Cl)c2)NC(=O)CN(C)C(=O)[C@H](CC2CCCCC2)N(C)C(=O)[C@@H]2CCN2C(=O)[C@H](C)N(C)C1=O` [Compound 2057] ([NMeL]I[NMeA][Aze][NMeCha][Sar][X13]P[Ac5c][NMeGly(cPent)][NMeD]-Piperidide; lactam N-11 (inferred); C-terminus assumed), the IC50 is 0.0011 µM.

For `CCCOC[C@H]1C(=O)N(C)CC(=O)N[C@@H](CCc2ccc(C(F)(F)F)c(F)c2)C(=O)N2CCC[C@H]2C(=O)NC2(CCCC2)C(=O)N(C)[C@@H]([C@@H](C)CC)C(=O)N(C)[C@H](C(=O)N2CCCCC2)CC(=O)N(C)[C@@H](CC(C)C)C(=O)N[C@@H]([C@@H](C)CC)C(=O)N(C)[C@@H](C)C(=O)N2CC[C@H]2C(=O)N1C` [Compound 236] ([NMeL]I[NMeA][Aze][NMeS](Propyl)[Sar][hPhe(3-F,4-CF3)]P[Ac5c][NMeI][NMeD]-Piperidide; lactam N-11), the IC50 stood at 0.0085 µM.

Take `CCO[C@@H]1C[C@H]2C(=O)NC3(CCC3)C(=O)N(C)[C@@H](C3CCCCC3)C(=O)N(C)[C@H](C)CC(=O)N(C)[C@@H](CC(C)C)C(=O)N[C@@H]([C@@H](C)CC)C(=O)N(C)[C@@H](C)C(=O)N3CC[C@H]3C(=O)N(CC)[C@@H](Cc3ccc(C)cc3)C(=O)N(C)CC(=O)N[C@@H](CCc3cc(F)c(C(F)(F)F)c(F)c3)C(=O)N2C1` [Compound 724] (cyclo([Ac4c][NMeChg][NMedβ3hAla][NMeL]I[NMeA][Aze][NEtPhe(4-Me)][Sar][hPhe(3,5-F2-4-CF3)][Hyp](Et))): the IC50 came out at 0.024 µM.

With `CC[C@H](C)[C@@H]1NC(=O)[C@H](CC2CCCCC2)N(C)C(=O)C[C@@H](C)NC(=O)[C@H](CC(C)C)N(C)C(=O)C(C)(C)NC(=O)[C@H](CC(C)C)N(C)C(=O)[C@H](CCc2ccc(C(F)(F)F)cc2)NC(=O)CN(C)C(=O)[C@H](Cc2ccc(Cl)cc2)N(C)C(=O)CN(C)C(=O)CN(C)C1=O` [Compound 615] (cyclo([Aib][NMeL][d(β3hA)][NMeCha]I[Sar][Sar][NMePhe(4-Cl)][Sar][hPhe(4-CF3)][NMeL])), the half-maximal inhibitory concentration (IC50) was determined as 0.22 µM.

For `CC[C@H](C)[C@@H]1NC(=O)[C@H](CC(C)C)N(C)C(=O)C[C@@H](C(=O)N2CCCCC2)N(C)C(=O)[C@H]([C@@H](C)OC)N(C)C(=O)C2(CCCC2)NC(=O)[C@@H]2CCCN2C(=O)[C@H](CCc2ccc(C(F)(F)F)c(Cl)c2)NC(=O)CN(C)C(=O)[C@H](CC2CCCCC2)N(C)C(=O)[C@@H]2CCN2C(=O)[C@H](C)N(C)C1=O` [Compound 639] ([NMeL]I[NMeA][Aze][NMeCha][Sar][hPhe(3-Cl-4-CF3)]P[Ac5c][NMeT](Me)[NMeD]-Piperidide; lactam N-11), the IC50 was determined as 0.014 µM.

Regarding `CCC[C@H]1C(=O)N[C@@H]([C@@H](C)CC)C(=O)N(C)[C@@H](C)C(=O)N2CC[C@H]2C(=O)N(C)[C@@H](CC2CCCCC2)C(=O)N(C)CC(=O)N[C@@H](CCc2ccc(C(F)(F)F)c(Cl)c2)C(=O)N2CCC[C@H]2C(=O)NC2(CCCC2)C(=O)N(C)[C@@H](C(C)C)C(=O)N(C)[C@H](C(=O)N2CCCCC2)CC(=O)N1C` [Compound 1639] ([NMeNva]I[NMeA][Aze][NMeCha][Sar][hPhe(3-Cl-4-CF3)]P[Ac5c][NMeV][NMeD]-Piperidide; lactam N-11), the IC50 worked out at 0.0058 µM.

By IC50 is commonly meant the point on the concentration scale where inhibition reaches its midpoint.
